Test results from ChEMBL document CHEMBL1141978, “Synthesis and antibacterial activities of 5-hydroxy-4-amino-2(5H)-furanones” (2005).
≈ marks a conversion by molar mass, not a printed value.

What was measured:
Escherichia coli [1] = assay: Zone of inhibition of Escherichia coli after treatment with the compound; type: functional
Pseudomonas aeruginosa [2] = assay: Zone of inhibition of Pseudomonas aeruginosa after treatment with the compound; type: functional
Acinetobacter sp. [3] = assay: Minimum inhibitory concentration in Acinetobacter species A1 strain was determined; type: functional
Acinetobacter sp. [4] = assay: Minimum inhibitory concentration in Acinetobacter species A2 strain was determined; type: functional
Klebsiella pneumoniae [5] = assay: Minimum inhibitory concentration in Klebsiella pneumoniae K1 strain was determined; type: functional
Klebsiella pneumoniae [6] = assay: Minimum inhibitory concentration in Klebsiella pneumoniae K2 strain was determined; type: functional
Staphylococcus aureus [7] = assay: Minimum inhibitory concentration in Staphylococcus aureus S1 strain was determined; type: functional
Staphylococcus aureus [8] = assay: Minimum inhibitory concentration in Staphylococcus aureus S2 strain was determined; type: functional
[9] = Minimum […] concentration in Enterobacter En1 strain was determined; type: functional
[10] = Minimum […] concentration in Enterobacter En3 strain was determined; type: functional
Escherichia coli [11] = assay: Minimum […] concentration in Escherichia coli E1 strain was determined; type: functional
Escherichia coli [12] = assay: Minimum […] concentration in Escherichia coli E3 strain was determined; type: functional
Escherichia coli [13] = assay: Minimum […] concentration Escherichia coli ATCC 25922 strain was determined; type: functional
Acinetobacter sp. [14] = assay: Minimum […] concentration in Acinetobacter species A1 strain was determined; type: functional
Acinetobacter sp. [15] = assay: Minimum […] concentration in Acinetobacter species A2 strain was determined; type: functional
Klebsiella pneumoniae [16] = assay: Minimum […] concentration in Klebsiella pneumoniae K1 strain was determined; type: functional
Klebsiella pneumoniae [17] = assay: Minimum […] concentration in Klebsiella pneumoniae K2 strain was determined; type: functional
Staphylococcus aureus [18] = assay: Minimum […] concentration in Staphylococcus aureus S1 strain was determined; type: functional
Staphylococcus aureus [19] = assay: Minimum […] concentration in Staphylococcus aureus S2 strain was determined; type: functional
Pseudomonas aeruginosa [20] = assay: Minimum […] concentration in Pseudomonas aeruginosa P7 strain was determined; type: functional
Pseudomonas aeruginosa [21] = assay: Minimum […] concentration in Pseudomonas aeruginosa ATCC 27853 was determined; type: functional
Pseudomonas aeruginosa [22] = assay: Minimum […] concentration in Pseudomonas aeruginosa P12 strain was determined; type: functional
Staphylococcus aureus [23] = assay: Minimum […] concentration in Staphylococcus aureus ATCC 25923 strain was determined; type: functional
Pseudomonas aeruginosa [24] = assay: Minimum inhibitory concentration in Pseudomonas aeruginosa P7 strain was determined; type: functional
Pseudomonas aeruginosa [25] = assay: Minimum inhibitory concentration in Pseudomonas aeruginosa P12 strain was determined; type: functional
Escherichia coli [26] = assay: Minimum inhibitory concentration in Escherichia coli ATCC 25922 strain was determined; type: functional
Escherichia coli [27] = assay: Minimum inhibitory concentration in Escherichia coli E1 strain was determined; type: functional
Escherichia coli [28] = assay: Minimum inhibitory concentration in Escherichia coli E3 strain was determined; type: functional
[29] = Minimum inhibitory concentration in Enterobacter En1 strain was determined; type: functional
[30] = Minimum inhibitory concentration in Enterobacter En3 strain was determined; type: functional
Staphylococcus aureus [31] = assay: Minimum inhibitory concentration in Staphylococcus aureus ATCC 25923 strian was determined; type: functional
Pseudomonas aeruginosa [32] = assay: Minimum inhibitory concentration in Pseudomonas aeruginosa ATCC 27853 strain was determined; type: functional
Staphylococcus aureus [33] = assay: Zone of inhibition of Staphylococcus aureus after treatment with compound; type: functional
Staphylococcus aureus [34] = assay: Zone of inhibition of Staphylococcus aureus after treatment with 10 ug of the compound; type: functional, organism-based
Pseudomonas aeruginosa [35] = assay: Zone of inhibition of Pseudomonas aeruginosa after treatment with 10 ug of the compound; type: functional, organism-based
Escherichia coli [36] = assay: Zone of inhibition of Escherichia coli after treatment with 10 ug of the compound; type: functional, organism-based
Staphylococcus aureus [37] = assay: Zone of inhibition of Staphylococcus aureus after treatment with the 30 ug of the compound; type: functional
Pseudomonas aeruginosa [38] = assay: Zone of inhibition of Pseudomonas aeruginosa after treatment with the 30 ug of the compound; type: functional
Escherichia coli [39] = assay: Zone of inhibition of Escherichia coli after treatment with the 30 ug of the compound; type: functional
Staphylococcus aureus [40] = assay: Zone of inhibition of Staphylococcus aureus after treatment with the compound; type: functional

C/N=C1\C(Cl)=C(O)OC1O (stereo unspecified)
Inhibition (Escherichia coli [1]): 11 mm
Inhibition (Pseudomonas aeruginosa [2]): 8 mm
MIC (Acinetobacter sp. [3]): 8 µg/mL (≈ 48.9 µM)
MIC (Acinetobacter sp. [4]): 64 µg/mL (≈ 391 µM)
MIC (Klebsiella pneumoniae [5]): 16 µg/mL (≈ 97.8 µM)
MIC (Klebsiella pneumoniae [6]): 32 µg/mL (≈ 196 µM)
MIC (Staphylococcus aureus [7]): 16 µg/mL (≈ 97.8 µM)
MIC (Staphylococcus aureus [8]): 4 µg/mL (≈ 24.5 µM)
MBC [9]: 64 µg/mL (≈ 391 µM)
MBC [10]: 32 µg/mL (≈ 196 µM)
MBC (Escherichia coli [11]): 32 µg/mL (≈ 196 µM)
MBC (Escherichia coli [12]): 64 µg/mL (≈ 391 µM)
MBC (Escherichia coli [13]): 32 µg/mL (≈ 196 µM)
MBC (Acinetobacter sp. [14]): 16 µg/mL (≈ 97.8 µM)
MBC (Acinetobacter sp. [15]): 64 µg/mL (≈ 391 µM)
MBC (Klebsiella pneumoniae [16]): 32 µg/mL (≈ 196 µM)
MBC (Klebsiella pneumoniae [17]): 64 µg/mL (≈ 391 µM)
MBC (Staphylococcus aureus [18]): 32 µg/mL (≈ 196 µM)
MBC (Staphylococcus aureus [19]): 8 µg/mL (≈ 48.9 µM)
MBC (Pseudomonas aeruginosa [20]): 64 µg/mL (≈ 391 µM)
MBC (Pseudomonas aeruginosa [21]): 32 µg/mL (≈ 196 µM)
MBC (Pseudomonas aeruginosa [22]): 64 µg/mL (≈ 391 µM)
MBC (Staphylococcus aureus [23]): 16 µg/mL (≈ 97.8 µM)
MIC (Pseudomonas aeruginosa [24]): 32 µg/mL (≈ 196 µM)
MIC (Pseudomonas aeruginosa [25]): 32 µg/mL (≈ 196 µM)
MIC (Escherichia coli [26]): 16 µg/mL (≈ 97.8 µM)
MIC (Escherichia coli [27]): 32 µg/mL (≈ 196 µM)
MIC (Escherichia coli [28]): 64 µg/mL (≈ 391 µM)
MIC [29]: 32 µg/mL (≈ 196 µM)
MIC [30]: 32 µg/mL (≈ 196 µM)
MIC (Staphylococcus aureus [31]): 8 µg/mL (≈ 48.9 µM)
MIC (Pseudomonas aeruginosa [32]): 16 µg/mL (≈ 97.8 µM)
Inhibition (Staphylococcus aureus [33]): 10 mm

GENTAMICIN
Inhibition (Staphylococcus aureus [34]): 31 mm
Inhibition (Pseudomonas aeruginosa [35]): 0 mm
Inhibition (Escherichia coli [36]): 25 mm

O=C(N[C@H](CO)[C@H](O)c1ccc([N+](=O)[O-])cc1)C(Cl)Cl [CHLORAMPHENICOL]
Inhibition (Staphylococcus aureus [37]): 0 mm
Inhibition (Pseudomonas aeruginosa [38]): 0 mm
Inhibition (Escherichia coli [39]): 15 mm

N=C1C(Cl)=C(O)OC1O (stereo unspecified)
Inhibition (Escherichia coli [1]): 8 mm
Inhibition (Pseudomonas aeruginosa [2]): 8 mm
MIC (Acinetobacter sp. [3]): 16 µg/mL (≈ 107 µM)
MIC (Acinetobacter sp. [4]): 32 µg/mL (≈ 214 µM)
MIC (Klebsiella pneumoniae [5]): 32 µg/mL (≈ 214 µM)
MIC (Klebsiella pneumoniae [6]): 128 µg/mL (≈ 856 µM)
MIC (Staphylococcus aureus [7]): 16 µg/mL (≈ 107 µM)
MIC (Staphylococcus aureus [8]): 4 µg/mL (≈ 26.7 µM)
MBC [9]: 64 µg/mL (≈ 428 µM)
MBC [10]: 64 µg/mL (≈ 428 µM)
MBC (Escherichia coli [11]): 64 µg/mL (≈ 428 µM)
MBC (Escherichia coli [12]): 128 µg/mL (≈ 856 µM)
MBC (Escherichia coli [13]): 128 µg/mL (≈ 856 µM)
MBC (Acinetobacter sp. [14]): 32 µg/mL (≈ 214 µM)
MBC (Acinetobacter sp. [15]): 64 µg/mL (≈ 428 µM)
MBC (Klebsiella pneumoniae [16]): 64 µg/mL (≈ 428 µM)
MBC (Klebsiella pneumoniae [17]): 128 µg/mL (≈ 856 µM)
MBC (Staphylococcus aureus [18]): 16 µg/mL (≈ 107 µM)
MBC (Staphylococcus aureus [19]): 8 µg/mL (≈ 53.5 µM)
MBC (Pseudomonas aeruginosa [20]): 64 µg/mL (≈ 428 µM)
MBC (Pseudomonas aeruginosa [21]): 64 µg/mL (≈ 428 µM)
MBC (Pseudomonas aeruginosa [22]): 128 µg/mL (≈ 856 µM)
MBC (Staphylococcus aureus [23]): 32 µg/mL (≈ 214 µM)
MIC (Pseudomonas aeruginosa [24]): 32 µg/mL (≈ 214 µM)
MIC (Pseudomonas aeruginosa [25]): 64 µg/mL (≈ 428 µM)
MIC (Escherichia coli [26]): 64 µg/mL (≈ 428 µM)
MIC (Escherichia coli [27]): 32 µg/mL (≈ 214 µM)
MIC (Escherichia coli [28]): 64 µg/mL (≈ 428 µM)
MIC [29]: 64 µg/mL (≈ 428 µM)
MIC [30]: 64 µg/mL (≈ 428 µM)
MIC (Staphylococcus aureus [31]): 16 µg/mL (≈ 107 µM)
MIC (Pseudomonas aeruginosa [32]): 32 µg/mL (≈ 214 µM)
Inhibition (Staphylococcus aureus [33]): 16 mm

C/N=C1\C(Br)=C(O)OC1O (stereo unspecified)
Inhibition (Escherichia coli [1]): 9 mm
Inhibition (Pseudomonas aeruginosa [2]): 7 mm
Inhibition (Staphylococcus aureus [33]): 16 mm

C[S+](C)[O-] [DIMETHYL SULFOXIDE]
Inhibition (Escherichia coli [1]): 0 mm
Inhibition (Staphylococcus aureus [40]): 0 mm
Inhibition (Pseudomonas aeruginosa [2]): 0 mm

OC1=C(Cl)/C(=N\Cc2ccccc2)C(O)O1 (stereo unspecified)
Inhibition (Escherichia coli [1]): 6 mm
Inhibition (Pseudomonas aeruginosa [2]): 6 mm
MIC (Acinetobacter sp. [3]): 4 µg/mL (≈ 16.7 µM)
MIC (Acinetobacter sp. [4]): 8 µg/mL (≈ 33.4 µM)
MIC (Klebsiella pneumoniae [5]): 32 µg/mL (≈ 134 µM)
MIC (Klebsiella pneumoniae [6]): 16 µg/mL (≈ 66.8 µM)
MIC (Staphylococcus aureus [7]): 16 µg/mL (≈ 66.8 µM)
MIC (Staphylococcus aureus [8]): 32 µg/mL (≈ 134 µM)
MBC [9]: 16 µg/mL (≈ 66.8 µM)
MBC [10]: 32 µg/mL (≈ 134 µM)
MBC (Escherichia coli [11]): 16 µg/mL (≈ 66.8 µM)
MBC (Escherichia coli [12]): 32 µg/mL (≈ 134 µM)
MBC (Escherichia coli [13]): 16 µg/mL (≈ 66.8 µM)
MBC (Acinetobacter sp. [14]): 8 µg/mL (≈ 33.4 µM)
MBC (Acinetobacter sp. [15]): 16 µg/mL (≈ 66.8 µM)
MBC (Klebsiella pneumoniae [16]): 32 µg/mL (≈ 134 µM)
MBC (Klebsiella pneumoniae [17]): 32 µg/mL (≈ 134 µM)
MBC (Staphylococcus aureus [18]): 32 µg/mL (≈ 134 µM)
MBC (Staphylococcus aureus [19]): 32 µg/mL (≈ 134 µM)
MBC (Pseudomonas aeruginosa [20]): 32 µg/mL (≈ 134 µM)
MBC (Pseudomonas aeruginosa [21]): 64 µg/mL (≈ 267 µM)
MBC (Pseudomonas aeruginosa [22]): 32 µg/mL (≈ 134 µM)
MBC (Staphylococcus aureus [23]): 8 µg/mL (≈ 33.4 µM)
MIC (Pseudomonas aeruginosa [24]): 32 µg/mL (≈ 134 µM)
MIC (Pseudomonas aeruginosa [25]): 16 µg/mL (≈ 66.8 µM)
MIC (Escherichia coli [26]): 8 µg/mL (≈ 33.4 µM)
MIC (Escherichia coli [27]): 16 µg/mL (≈ 66.8 µM)
MIC (Escherichia coli [28]): 16 µg/mL (≈ 66.8 µM)
MIC [29]: 8 µg/mL (≈ 33.4 µM)
MIC [30]: 16 µg/mL (≈ 66.8 µM)
MIC (Staphylococcus aureus [31]): 4 µg/mL (≈ 16.7 µM)
MIC (Pseudomonas aeruginosa [32]): 32 µg/mL (≈ 134 µM)
Inhibition (Staphylococcus aureus [33]): 16 mm
